The results in this text go back to patent EP4810493A1, “HETEROCYCLIC CARBONYL DERIVATIVE MODULATOR, PREPARATION METHOD THEREFOR, AND USE THEREOF” (Shanghai Hansoh Biomedical Co., Ltd., priority 2023, dated 2025).

Molecules are shown by their SMILES.

Test system in one series: not listed separately
Briefly: Pharmacokinetic determination in SD rats. The note with it: rat, in vivo, po; male SD rats, p.o. 5 mg/kg. Here is the method:
To investigate the pharmacokinetic behaviours of the example compounds in both plasma and brain of SD rats (test animals) following oral administration at a dose of 5 mg/kg.
2.1 Test drugs: The example compounds of the present invention, made in house.
2.2 Test animals: SD Rat, male.
24 SD Rats, male; p.o. respectively at a dose of 5 mg/kg and an administration volume of 10 mL/kg after the rats were fasted overnight.
Formulation of a drug for oral administration: 0.5% CMC-Na (1% Tween 80).
0.50 g of sodium carboxymethyl cellulose (CMC-Na, viscosity: 800-1200 Cps) was weighed and dissolved in 99 mL of purified water, and 1 ml of Tween 80 was added. The components were mixed thoroughly under stirring to form a clear solution.
The example compound was weighed into a 100 mL glass vial, 80 mL of the solution was added, and the mixture was subjected to ultrasound treatment for 10 minutes to obtain a homogeneous suspension with a concentration of 0.5 mg/mL.
After the test animals were euthanised by CO2, blood samples were collected from the heart and brain tissues were harvested at 0.25 h, 0.5 h, 1 h, 2 h, 4 h, 6 h, 8 h, and 24 h post-dose. Blood was placed in EDTA-2K tubes, and centrifuged at 6000 rpm for 6 min at 4°C to separate the plasma. Brain tissues were rinsed with pre-cold PBS, blotted dry, and weighed. Both plasma and brain samples were stored at -80°C. The animals were fed 4 h after administration.
• 3) 40 uL of plasma sample was precipitated with 160 uL of acetonitrile, mixed, and centrifuged at 3500 × g for 5-20 min. Brain tissues were diluted, homogenised and centrifuged. • 4) 100 uL of the treated supernatant solution was taken for LC/MS/MS analysis to determine the concentration of the test compounds.
• Liquid phase conditions: Shimadzu LC-20AD pump • Mass spectrometry conditions: AB Sciex API 4000 mass spectrometer • Chromatographic column: Phenomenex Gemiu 5 um C18 50 × 4.6 mm • Mobile phase: solution A: 0.1% formic acid in water, solution B: acetonitrile • Flow rate: 0.8 mL/min • Elution time: 0-4.0 min, with eluents as follows:
The main pharmacokinetic parameters were calculated using WinNonlin 8.1.
`Cc1c2c(c3ccnn3c1C)CN(C(=O)OC1CN(c3ccnc(C(F)F)c3)C1)C2` [Example 142]: the AUC(0-inf) (as a rule, the area under the concentration-time curve extrapolated to infinity) came to 9320 ng·h/mL; the Cmax (usually the peak of the concentration-time curve) came out at 1380 ng/mL; the Tmax – broadly, the time at which the peak concentration occurs – came out at 2 h.

Still in this series, the particulars now being: rat, in vivo, po; male SD rats, p.o. 5 mg/kg; read-out: MRT 0-∞.
Consider `Cc1c2c(c3ccnn3c1C)CN(C(=O)OC1CN(c3ccnc(C(F)F)c3)C1)C2` [Example 142], for which the MRT inf was 4.4 h.

Another series addresses T1, M4 receptor (Homo sapiens, UniProt P08173).
T1 construct: expressed in transfected cells
T1 sequence (P08173 1-479): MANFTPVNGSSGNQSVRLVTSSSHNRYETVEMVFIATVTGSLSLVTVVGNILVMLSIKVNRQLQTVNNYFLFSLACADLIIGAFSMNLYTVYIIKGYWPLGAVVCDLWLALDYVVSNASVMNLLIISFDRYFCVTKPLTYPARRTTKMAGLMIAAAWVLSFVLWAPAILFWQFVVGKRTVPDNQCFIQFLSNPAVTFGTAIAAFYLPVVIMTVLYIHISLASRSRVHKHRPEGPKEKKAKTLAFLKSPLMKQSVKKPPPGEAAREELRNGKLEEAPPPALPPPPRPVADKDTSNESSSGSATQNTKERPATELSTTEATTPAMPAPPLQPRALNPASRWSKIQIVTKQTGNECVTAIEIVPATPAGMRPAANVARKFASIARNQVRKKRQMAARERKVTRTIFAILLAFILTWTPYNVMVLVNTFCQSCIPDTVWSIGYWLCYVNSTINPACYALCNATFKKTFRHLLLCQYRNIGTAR
Briefly: Calcium flux (FLIPR) potentiation assay in cells stably expressing M4 receptor. It is filed as cell-based. The note with it: CHO-K1/M4/Gα15 cells; potentiation of acetylcholine (EC20) calcium flux; read-out: M4 FLIPR EC50. The text has this:
Test example 1. Determination of the effect of the compounds of the present invention on calcium current in cells stably expressing M1-M5 receptors
To detect the potentiating effect of compounds on calcium flux activity in CHO-K1/human M1/3/5 and CHO-K1/Gα15 M2/4 cells.
384-well assay plate, 384-well plate, FLIPR Tip, FLIPR Penta plate reader, Dispendix non-contact nanoliter dispensing system (liquid handling workstation), liquid handler.
Ham's F-12 Nutrient Mix, foetal bovine serum, P/S (Gibco: 15140122), HBSS (Gibco: 14025076), HEPES (Gibco: 15630080), FLIPR calcium 6 assay kit (Molecular Devices: R8190), Probenecid (PBA) (Invitrogen: P36400), Acetylcholine chloride (Sigma: A6625-25G) Complete culture medium: DMEM + 10% FBS + 1X P/S; Cell seeding medium: DMEM + 10% FBS + 1X PS; Assay buffer 1: 1X HBSS + 20 mM HEPES +2.5 mM Probenecid; Assay buffer 2: 1X HBSS + 20 mM HEPES; Cell line: CHO-K1/M1; CHO-K1/M2/Gα15; CHO-K1/M3; CHO-K1/M4/Gα15; CHO-K1/M5.
FLIPR calcium 6 assay kit: Component A was dissolved in Assay buffer 1, and the mixture was shaken for 1-2 min, sub-packaged and stored at -20°C.
• 1) CHO-K1/M1; CHO-K1/M2/Gα15; CHO-K1/M3; CHO-K1/M4/Gα15; and CHO-K1/M5 cell lines were cultured separately in complete culture medium at 37°C, 5% CO2 to 70%-90% confluency. • 2) The cells were digested and resuspended in cell seeding medium, 5,000 cells/well/20 µL were seeded into a 384-well cell culture plate, and the cells were cultured at 37°C, 5% CO2 for 24 hours. • 3) The cell culture plate was taken out of the CO2 incubator and equilibrated at room temperature for 10 minutes. • 4) Component A solution was removed and allowed to equilibrate to room temperature. 20 µL of Component A solution was added to each well of the cell culture plate, and incubated at room temperature in the dark for 1 hour. • 5) Acetylcholine chloride (ACh), a muscarinic receptor agonist, was prepared in Assay buffer 2 at EC20/EC100 concentrations; subsequently, 30 µL of the prepared muscarinic receptor agonist was added to a 384-well agonist plate (PE: 6008590) using a Multidrop Combi; the working solutions of the positive control compound and the test compound were serially diluted at a 3.16-fold gradient and dispensed (450 nL) into a 384-well compound plate (PE: 6008590) using the Dispendix liquid handling workstation; 30 µL of Assay buffer 2 was added to the 384-well compound plate (PE: 6008590) using the Multidrop Combi; the positive control compound and the test compound were diluted to 6X, mixed by shaking, and placed at room temperature until use. • 6) 10 µL of the diluted 6X compound was added to the assay wells of the corresponding 384-well cell plate using the FLIPR Penta, followed by a 2-minute incubation. • 7) 10 µL of the prepared muscarinic receptor agonist was added to the assay wells of the corresponding 384-well cell plate using the FLIPR Penta, with simultaneous data acquisition.
FLIPR Penta was used to read and collect the fluorescence signal value (RFU). The maximum RFU value was used to calculate the percent activation data based on the readings of the Low control (DMSO control group) and High control (ACh EC100) experimental groups {% activation rate = (RFUsample - RFUlow control) / (RFUhigh control - RFUlow control)×100}. The test compound was diluted 3.16X in the reaction system to generate 11 concentration points ranging from 30 µM to […].
As to `Cc1c2c(c3nccn3c1C)CN(C(=O)OC1CN(c3ccnc(C(F)(F)F)c3)C1)C2` [Example 71], the EC50 (usually the concentration at which the effect is half-maximal) was found to be 71.9 nM.

Turning to `COc1nccc(N2CC(OC(=O)N3Cc4c(C)c(C)n5ncnc5c4C3)C2)n1` [Example 239], the EC50 stood at 42.6 nM.

With `Cc1c2c(c3nc(N)nn3c1C)CN(C(=O)CC1CN(c3ccnc(C(F)(F)F)c3)C1)C2` [Example 145], the half-maximal effective concentration (EC50) was 27.4 nM.

As to `Cc1c2c(c3ncnn3c1C)CN(C(=O)CC1CN(c3cc(C(F)(F)F)ncc3Cl)C1)C2` [Example 204], the EC50 is 33 nM.

For the molecule `Cc1c2c(c3ccnn3c1C)CN(C(=O)CC1CN(c3ccnc(OCC(F)F)c3)C1)C2` [Example 203], the 50% effective concentration (EC50) turned out to be 90 nM.

For `Cc1c2c(c3ncnn3c1C)CN(C(=O)C[C@@H]1C[C@H]1c1ccc(F)nc1)C2` [Example 103, 1-(5,6-Dimethyl-7,9-dihydro-8H-pyrrolo[3,4-c][1,2,4]triazolo[1,5-a]pyridin-8-yl)-2-((1S,2R)-2-(6-fluoropyridin-3-yl)cyclopropyl)ethan-1-one], the concentration giving a half-maximal response (EC50) amounted to 24.4 nM.

For `Cc1c2c(c3nnnn3c1C)CN(C(=O)CC1CN(c3ccnc(C(F)(F)F)c3)C1)C2` [Example 148], the EC50 stood at 37.7 nM.

As for `Cc1c2c(c3nnnn3c1C)CN(C(=O)OC1CN(c3ccnc(OC(F)F)c3)C1)C2` [Example 179], the half-maximal effective concentration (EC50) came out at 57.1 nM.

In the case of `Cc1c2c(c3ncnn3c1C)CN(C(=O)CC1CN(c3cnc4c(c3)CCCO4)C1)C2` [Example 302], the EC50 came to 23.2 nM.

As to `Cc1ccc(N2CC(CC(=O)N3Cc4c(C)c(C)n5ncnc5c4C3)C2)cn1` [Example 318], the EC50 came out at 11.2 nM.

Turning to `Cc1cn2nc(N3CC(OC(=O)N4Cc5c(C)c(C)n6nccc6c5C4)C3)ccc2n1` [Example 200], the EC50 turned out to be 39.4 nM.

For `Cc1c2c(c3ncnn3c1C)CN(C(=O)CC1CN(c3cc(NC(C)C)ncn3)C1)C2` [Example 54], the concentration giving a half-maximal response (EC50) stood at 9.6 nM.

Regarding `Cc1c2c(c3ncnn3c1C)CN(C(=O)OC1CN(c3ccc4nc(CF)cn4n3)C1)C2` [Example 190], the concentration for a half-maximal effect (EC50) turned out to be 73.2 nM.

Regarding `Cc1c2c(c3ncnn3c1C)CN(C(=O)OC1CN(c3cc(C(F)(F)F)ncc3Cl)C1)C2` [Example 180], the EC50 was determined as 69.5 nM.

With `CCn1ccc2cc(N3CC(CC(=O)N4Cc5c(C)c(C)n6ncnc6c5C4)C3)ccc21` [Example 310], the half-maximal effective concentration (EC50) is 91.2 nM.

Regarding `CN=S(C)(=O)c1ccc(N2CC(CC(=O)N3Cc4c(C)c(C)n5ncnc5c4C3)C2)cc1` (centres unmarked) [Example 38], the concentration for a half-maximal effect (EC50) came out at 37.9 nM.

As for `Cc1c2c(c3nccn3c1C)CN(C(=O)CC1CN(c3ccnc(C(F)(F)F)c3)C1)C2` [Example 60, 1-(5,6-Dimethyl-7,9-dihydro-8H-imidazo[1,2-a]pyrrolo[3,4-c]pyridin-8-yl)-2-(1-(2-(trifluoromethyl)pyridin-4-yl)azetidin-3-yl)ethan-1-one], the EC50 was 8.8 nM.

Consider `COc1ccc(N2CC(CC(=O)N3Cc4c(C)c(C)n5ncnc5c4C3)C2)cn1` [Example 264], for which the concentration giving a half-maximal response (EC50) worked out at 47.8 nM.

As for `Cc1nc(Cl)c(C)c(N2CC(CC(=O)N3Cc4c(C)c(C)n5ncnc5c4C3)C2)n1` [Example 226], the EC50 is 29.9 nM.

For `Cc1nc2c3c(c(C)c(C)n2n1)CN(C(=O)CC1CN(c2ccnc(C(F)(F)F)c2)C1)C3` [Example 57], the half-maximal effective concentration (EC50) was found to be 18 nM.

Take `Cc1c2c(n3ncnc3c1Cl)CN(C(=O)CC1CN(c3ccnc(C(F)(F)F)c3)C1)C2` [Example 293, 1-(4-Chloro-5-methyl-7,8-dihydro-6H-[1,2,4]triazolo[5,1-f]pyrrolo[4,3-b]pyridin-7-yl)-2-{1-[2-(trifluoromethyl)pyridin-4-yl]azetidin-3-yl}ethan-1-one]: the EC50 was 99.7 nM.

On to `Cc1c2c(c3ncnn3c1C)CN(C(=O)CC1CN(c3ccc(OC(F)F)nc3)C1)C2` [Example 305], for which the 50% effective concentration (EC50) was found to be 6.8 nM.
